Source: ChEMBL document CHEMBL5034015, “Structure-Based Optimization of 3-Phenyl-N-(2-(3-phenylureido)ethyl)thiophene-2-sulfonamide Derivatives as Selective Mcl-1 Inhibitors” (J Med Chem, 2021)
The source made the active and inactive calls.

Key:
[1] = target: Apoptosis regulator Bcl-2 (Homo sapiens, UniProt P10415); test: Binding affinity to full length human Bcl-2 expressed in Escherichia coli BL21 (DE3) at up to 100 uM preincubated for 30 mins followed by 5-FAM-QEDIIIINIARHLAQVGDSMD-RSIPPG tracer addition and measured after 20 mins by fluorescence polarization assay; settings: dose microM <=100, time 50.0 min
Sequence of Apoptosis regulator Bcl-2 (P10415 whole entry): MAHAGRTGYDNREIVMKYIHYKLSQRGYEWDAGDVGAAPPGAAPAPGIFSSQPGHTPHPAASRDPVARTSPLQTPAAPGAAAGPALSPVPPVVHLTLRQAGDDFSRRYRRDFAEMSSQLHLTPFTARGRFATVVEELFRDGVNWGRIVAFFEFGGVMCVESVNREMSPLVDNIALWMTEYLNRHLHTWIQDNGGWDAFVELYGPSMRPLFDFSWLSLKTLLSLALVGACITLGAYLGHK

[2] = target: Bcl-2-like protein 1 (Homo sapiens, UniProt Q07817); test: Binding affinity to full length human Bcl-xl expressed in Escherichia coli BL21 (DE3) at up to 100 uM preincubated for 30 mins followed by 5-FAM-QEDIIIINIARHLAQVGDSMD-RSIPPG tracer addition and measured after 20 mins by fluorescence polarization assay; settings: dose microM <=100, time 50.0 min
Sequence of Bcl-2-like protein 1 (Q07817 whole entry): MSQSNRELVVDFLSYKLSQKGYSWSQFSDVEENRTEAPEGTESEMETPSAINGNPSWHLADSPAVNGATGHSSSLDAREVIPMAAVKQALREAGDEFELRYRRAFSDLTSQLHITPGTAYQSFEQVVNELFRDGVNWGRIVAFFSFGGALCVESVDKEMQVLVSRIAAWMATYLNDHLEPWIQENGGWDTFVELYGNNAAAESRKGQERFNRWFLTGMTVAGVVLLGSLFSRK

[3] = target: T1, Induced myeloid leukemia cell differentiation protein Mcl-1 (Homo sapiens, UniProt Q07820); test: Binding affinity to full length human MCL1 expressed in Escherichia coli BL21 (DE3) assessed as inhibition constant preincubated for 30 mins followed by 5-FAM-QEDIIIINIARHLAQVGDSMD-RSIPPG tracer addition and measured after 20 mins by fluorescence polarization assay
T1 sequence (Q07820 whole entry): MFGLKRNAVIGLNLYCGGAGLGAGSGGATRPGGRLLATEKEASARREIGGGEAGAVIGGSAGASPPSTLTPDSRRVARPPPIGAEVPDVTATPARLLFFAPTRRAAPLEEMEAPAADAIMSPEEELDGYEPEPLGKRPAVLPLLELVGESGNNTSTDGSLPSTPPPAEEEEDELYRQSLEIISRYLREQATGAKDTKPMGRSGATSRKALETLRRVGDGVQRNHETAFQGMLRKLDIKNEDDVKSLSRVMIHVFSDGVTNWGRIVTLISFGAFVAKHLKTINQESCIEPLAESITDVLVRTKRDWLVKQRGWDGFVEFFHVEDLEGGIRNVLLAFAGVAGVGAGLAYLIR

[4] = system: HeLa; test: cells; settings: Homo sapiens, 48 h
Description: Cytotoxicity against human HeLa cells assessed as inhibition of cell growth incubated for 48 hrs by CCK8 assay

[5] = system: RS4-11; test: cells; settings: Homo sapiens, RS4-11, 48 h
Description: Cytotoxicity against human RS4-11 cells assessed as inhibition of cell growth incubated for 48 hrs by CCK8 assay

[6] = system: HEK-293T; test: Cytotoxicity against HEK293T cells assessed as reduction in cell viability incubated for 48 hrs by CCK8 assay; settings: Homo sapiens
[7] = system: HL-60; test: cells; settings: Homo sapiens, HL-60, 48 h
Description: Cytotoxicity against human HL-60 cells assessed as inhibition of cell growth incubated for 48 hrs by CCK8 assay

[8] = target: T1, Induced myeloid leukemia cell differentiation protein Mcl-1; test: Binding affinity to full length human MCL1 expressed in Escherichia coli BL21 (DE3) at up to 100 uM preincubated for 30 mins followed by 5-FAM-QEDIIIINIARHLAQVGDSMD-RSIPPG tracer addition and measured after 20 mins by fluorescence polarization assay; settings: dose microM <=100, time 50.0 min

| Compound | Activity [1] | Activity [2] | Ki [3] [µM] | IC50 [4] [µM] | IC50 [5] [µM] | IC50 [7] [µM] | Activity [8] | IC50 [6] [µM] |
| --- | --- | --- | --- | --- | --- | --- | --- | --- |
| Cc1ccc(-c2ccsc2S(=O)(=O)NCCNC(=O)Nc2cccc([N+](=O)[O-])c2)c(Oc2ccc(O)c(O)c2)c1 | inactive | inactive | 13 | > 20 | 9.1 | 6 | – | 6.8 |
| COc1ccc(NC(=O)NCCNS(=O)(=O)c2ccc(-c3ccccc3Oc3ccc([N+](=O)[O-])cc3)s2)cc1 | inactive | inactive | 4.6 | > 20 | > 50 | > 50 | – | > 20 |
| COc1ccc(NC(=O)NCCNS(=O)(=O)c2ccc(-c3ccccc3Oc3ccc([N+](=O)[O-])c([N+](=O)[O-])c3)s2)cc1 | inactive | inactive | – | > 20 | 1.4 | 5.4 | inactive | 18.5 |
| O=C(NCCNS(=O)(=O)c1ccc(-c2ccccc2Oc2ccc([N+](=O)[O-])c([N+](=O)[O-])c2)s1)Nc1cc(Cl)cc(Cl)c1 | inactive | inactive | – | > 20 | 2.1 | 2.3 | inactive | > 20 |
| COc1ccc(NC(=O)NCCNS(=O)(=O)c2ccc(-c3ccccc3OCc3cccc(O)c3)s2)cc1 | inactive | inactive | – | > 20 | 9.4 | > 20 | inactive | > 20 |
| O=C(NCCNS(=O)(=O)c1ccc(-c2ccccc2Oc2ccc([N+](=O)[O-])c([N+](=O)[O-])c2)s1)Nc1cc(C(F)(F)F)cc(C(F)(F)F)c1 | inactive | inactive | – | > 50 | 2.4 | 1.9 | inactive | > 50 |
| O=[N+]([O-])c1ccc(NC(=S)NCCNS(=O)(=O)c2ccc(-c3ccccc3O[C@H]3CC[C@@H](O)CC3)s2)cc1 | inactive | inactive | – | > 20 | 9.4 | > 50 | inactive | 20 |
| O=C(NCCNS(=O)(=O)c1ccc(-c2ccccc2Oc2ccc([N+](=O)[O-])c([N+](=O)[O-])c2)s1)Nc1ccc([N+](=O)[O-])cc1 | inactive | inactive | – | > 20 | 3 | 0.34 | inactive | 16.6 |
| COc1cccc(NC(=O)NCCNS(=O)(=O)c2sccc2-c2ccc(C)cc2Oc2ccc(O)c(O)c2)c1 | inactive | inactive | – | > 20 | 7.5 | 3.6 | inactive | > 20 |
| Cc1cc(C)cc(NC(=O)NCCNS(=O)(=O)c2ccc(-c3ccccc3OCc3ccccc3)s2)c1 | inactive | inactive | – | > 50 | > 50 | 2.2 | inactive | > 20 |

Now those with a lower IC50 [4], led by results:

| Activity [1] | Activity [2] | Ki [3] [µM] | IC50 [4] [µM] | IC50 [5] [µM] | IC50 [7] [µM] | Activity [8] | Compound | IC50 [6] [µM] |
| --- | --- | --- | --- | --- | --- | --- | --- | --- |
| inactive | inactive | – | 17.3 | 3 | 4 | inactive | O=C(NCCNS(=O)(=O)c1ccc(-c2ccccc2OCc2cccc(O)c2)s1)Nc1cc(C(F)(F)F)cc(C(F)(F)F)c1 | > 20 |
| inactive | inactive | – | 12 | 3.6 | 9.1 | inactive | Cc1cc(C)cc(NC(=O)NCCNS(=O)(=O)c2ccc(-c3ccccc3Oc3ccc([N+](=O)[O-])c([N+](=O)[O-])c3)s2)c1 | > 50 |
| inactive | inactive | – | 11.9 | 5.8 | 11.2 | inactive | COc1ccc(Oc2ccc(C(C)C)cc2-c2ccsc2S(=O)(=O)NCCNC(=S)Nc2ccc([N+](=O)[O-])cc2)cc1OC | 11.4 |
| inactive | inactive | – | 11.6 | 11.7 | 7.4 | inactive | COc1ccc(Oc2ccc(C(C)C)cc2-c2ccsc2S(=O)(=O)NCCNC(=O)Nc2cc(C(F)(F)F)cc(C(F)(F)F)c2)cc1OC | 12.1 |
| inactive | inactive | – | 11.6 | 9 | 6.5 | inactive | COc1ccc(Oc2ccc(C(C)C)cc2-c2ccsc2S(=O)(=O)NCCNC(=O)Nc2cc(Cl)cc(Cl)c2)cc1OC | 11.9 |
| inactive | inactive | – | 10.9 | 6.3 | 2.6 | inactive | O=S(=O)(NCCNC(=S)Nc1cc(C(F)(F)F)cc(C(F)(F)F)c1)c1ccc(-c2ccccc2O[C@H]2CC[C@@H](O)CC2)s1 | > 20 |
| inactive | inactive | – | 10.7 | 5.8 | 1.8 | inactive | O=S(=O)(NCCNC(=S)Nc1cccc(Cl)c1)c1ccc(-c2ccccc2OCc2cccc(O)c2)s1 | 17.4 |
| inactive | inactive | – | 10.5 | 4.1 | 8.9 | inactive | O=C(NCCNS(=O)(=O)c1ccc(-c2ccccc2O[C@H]2CC[C@H](O)CC2)s1)Nc1ccc([N+](=O)[O-])cc1 | 9 |
| inactive | inactive | – | 9.9 | 6.3 | 7.2 | inactive | O=[N+]([O-])c1ccc(Oc2ccccc2-c2ccc(S(=O)(=O)NCCNC(=S)Nc3cc(C(F)(F)F)cc(C(F)(F)F)c3)s2)cc1 | 6 |
| inactive | inactive | 12 | 8.3 | 5.5 | 6.9 | – | COc1ccc(Oc2ccc(C(C)C)cc2-c2ccsc2S(=O)(=O)NCCNC(=S)Nc2cc(C(F)(F)F)cc(C(F)(F)F)c2)cc1OC | 10.2 |
| inactive | inactive | – | 5.4 | 1.5 | 11.6 | inactive | O=[N+]([O-])c1ccc(NC(=S)NCCNS(=O)(=O)c2ccc(-c3ccccc3O[C@H]3CC[C@H](O)CC3)s2)cc1 | 10.5 |
| inactive | inactive | – | 4.7 | > 50 | 2.1 | inactive | O=S(=O)(NCCNC(=S)Nc1cc(C(F)(F)F)cc(C(F)(F)F)c1)c1ccc(-c2ccccc2OCc2ccccc2)s1 | 8.5 |
| inactive | inactive | – | 4.6 | > 50 | > 50 | inactive | O=[N+]([O-])c1ccc(Oc2ccccc2-c2ccc(S(=O)(=O)NCCNC(=S)Nc3cccc(Cl)c3)s2)cc1 | 4.99 |
